According to ChEMBL document CHEMBL1201862, “PubChem BioAssay data set” (2004):
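Step 1: Grow cells in 96-well plates. Step 2: Expose to compound for 48 hours at 5 concentrations. Step 3: Interpolate endpoints linearly; if unreached, use highest concentration. Abbreviation: GI50, concentration required for 50% inhibition of growth.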 The source made the active and inactive calls. Cut-off read from the data, not from the text of the source: active = GI50 up to about 1.1 µM and inactive = higher.

Experiments:
Assay in all cases: inhibition of tumour cell growth, NCI panel, 48 h
SR = tested on: SR
SW-620 = tested on: SW-620
K562 = tested on: K562
UACC-62 = tested on: UACC-62
HOP-62 = tested on: HOP-62
COLO 205 = tested on: COLO 205
HL-60 = tested on: HL-60
MDA-MB-435 = tested on: MDA-MB-435
SNB-75 = tested on: SNB-75
PC-3 = tested on: PC-3
NCI-H23 = tested on: NCI-H23
MDA-N = tested on: MDA-N
OVCAR-5 = tested on: OVCAR-5
HOP-92 = tested on: HOP-92
HCT-116 = tested on: HCT-116
SK-MEL-28 = tested on: SK-MEL-28
SF-295 = tested on: SF-295
SK-MEL-5 = tested on: SK-MEL-5
HCT-15 = tested on: HCT-15
OVCAR-8 = tested on: OVCAR-8
HCC 2998 = tested on: HCC 2998
A498 = tested on: A498
NCI/ADR-RES = tested on: NCI/ADR-RES
IGROV-1 = tested on: IGROV-1
T47D = tested on: T47D
A549 = tested on: A549
MCF7 = tested on: MCF7
SN12C = tested on: SN12C
Malme-3M = tested on: Malme-3M
ACHN = tested on: ACHN
KM12 = tested on: KM12
NCI-H522 = tested on: NCI-H522
UACC-257 = tested on: UACC-257
EKVX = tested on: EKVX
LOX IMVI = tested on: LOX IMVI
786-0 = tested on: 786-0
SK-OV-3 = tested on: SK-OV-3
NCI-H226 = tested on: NCI-H226
OVCAR-3 = tested on: OVCAR-3
SF-268 = tested on: SF-268
HT-29 = tested on: HT-29
DU-145 = tested on: DU-145
NCI-H460 = tested on: NCI-H460
SK-MEL-2 = tested on: SK-MEL-2
TK-10 = tested on: TK-10
SNB-19 = tested on: SNB-19
M14 = tested on: M14
CAKI-1 = tested on: CAKI-1
U-251 = tested on: U-251
SF-539 = tested on: SF-539
RXF 393 = tested on: RXF 393
OVCAR-4 = tested on: OVCAR-4
UO-31 = tested on: UO-31
MOLT-4 = tested on: MOLT-4
RPMI-8226 = tested on: RPMI-8226
CCRF-CEM = tested on: CCRF-CEM
Hs-578T = tested on: Hs-578T
MDA-MB-231 = tested on: MDA-MB-231

**Q.** What does the source list for `CC1(C)CSCC(C)(C)C(=N/N)/C1=N\N`?
**A.** GI50 (SR): > 100 µM (inactive); GI50 (SW-620): > 100 µM (inactive); GI50 (K562): > 100 µM (inactive); GI50 (UACC-62): > 100 µM (inactive); GI50 (HOP-62): > 100 µM (inactive); GI50 (COLO 205): > 100 µM (inactive); GI50 (HL-60): > 100 µM (inactive); GI50 (MDA-MB-435): > 100 µM (inactive); GI50 (SNB-75): > 100 µM (inactive); GI50 (PC-3): > 100 µM (inactive); GI50 (NCI-H23): > 100 µM (inactive); GI50 (MDA-N): > 100 µM (inactive); GI50 (OVCAR-5): > 100 µM (inactive); GI50 (HOP-92): > 100 µM (inactive); GI50 (HCT-116): > 100 µM (inactive); GI50 (SK-MEL-28): > 100 µM (inactive); GI50 (SF-295): > 100 µM (inactive); GI50 (SK-MEL-5): > 100 µM (inactive); GI50 (HCT-15): > 100 µM; GI50 (OVCAR-8): > 100 µM (inactive); GI50 (HCC 2998): > 100 µM (inactive); GI50 (A498): > 100 µM (inactive); GI50 (NCI/ADR-RES): > 100 µM (inactive); GI50 (IGROV-1): > 100 µM (inactive); GI50 (T47D): > 100 µM (inactive); GI50 (A549): > 100 µM (inactive); GI50 (MCF7): > 100 µM (inactive); GI50 (SN12C): > 100 µM (inactive); GI50 (Malme-3M): > 100 µM (inactive); GI50 (ACHN): > 100 µM (inactive); GI50 (KM12): > 100 µM (inactive); GI50 (NCI-H522): > 100 µM (inactive); GI50 (UACC-257): > 100 µM (inactive); GI50 (EKVX): > 100 µM (inactive); GI50 (LOX IMVI): > 100 µM (inactive); GI50 (786-0): > 100 µM (inactive); GI50 (SK-OV-3): > 100 µM (inactive); GI50 (NCI-H226): > 100 µM (inactive); GI50 (OVCAR-3): > 100 µM (inactive); GI50 (SF-268): > 100 µM (inactive); GI50 (HT-29): > 100 µM (inactive); GI50 (DU-145): > 100 µM (inactive); GI50 (NCI-H460): > 100 µM (inactive); GI50 (SK-MEL-2): > 100 µM (inactive); GI50 (TK-10): > 100 µM (inactive); GI50 (SNB-19): > 100 µM (inactive); GI50 (M14): > 100 µM (inactive); GI50 (CAKI-1): > 100 µM (inactive); GI50 (U-251): > 100 µM (inactive); GI50 (SF-539): > 100 µM (inactive)

**Q.** Which results are given for `O=C1NCC2(CCN(CC3COc4ccccc4O3)CC2)N1c1ccccc1` (stereo unspecified)?
**A.** GI50 (SR): > 100 µM (inactive); GI50 (SW-620): > 100 µM (inactive); GI50 (K562): 80.4 µM (inactive); GI50 (UACC-62): > 100 µM (inactive); GI50 (RXF 393): > 100 µM (inactive); GI50 (OVCAR-4): > 100 µM (inactive); GI50 (HOP-62): > 100 µM (inactive); GI50 (COLO 205): > 100 µM (inactive); GI50 (HL-60): 60.3 µM (inactive); GI50 (MDA-MB-435): > 100 µM (inactive); GI50 (SNB-75): > 100 µM (inactive); GI50 (PC-3): > 100 µM (inactive); GI50 (NCI-H23): > 100 µM (inactive); GI50 (OVCAR-5): > 100 µM (inactive); GI50 (UO-31): > 100 µM (inactive); GI50 (MOLT-4): 71.1 µM (inactive); GI50 (HCT-116): > 100 µM (inactive); GI50 (SK-MEL-28): 89.5 µM (inactive); GI50 (SF-295): > 100 µM (inactive); GI50 (SK-MEL-5): > 100 µM (inactive); GI50 (HCT-15): > 100 µM; GI50 (OVCAR-8): > 100 µM (inactive); GI50 (HCC 2998): > 100 µM (inactive); GI50 (A498): > 100 µM (inactive); GI50 (NCI/ADR-RES): > 100 µM (inactive); GI50 (IGROV-1): > 100 µM (inactive); GI50 (T47D): > 100 µM (inactive); GI50 (A549): > 100 µM (inactive); GI50 (MCF7): > 100 µM (inactive); GI50 (SN12C): > 100 µM (inactive); GI50 (RPMI-8226): > 100 µM (inactive); GI50 (Malme-3M): > 100 µM (inactive); GI50 (ACHN): > 100 µM (inactive); GI50 (KM12): > 100 µM (inactive); GI50 (NCI-H522): > 100 µM (inactive); GI50 (UACC-257): > 100 µM (inactive); GI50 (EKVX): > 100 µM (inactive); GI50 (LOX IMVI): > 100 µM (inactive); GI50 (786-0): > 100 µM (inactive); GI50 (SK-OV-3): > 100 µM (inactive); GI50 (NCI-H226): > 100 µM (inactive); GI50 (OVCAR-3): > 100 µM (inactive); GI50 (SF-268): > 100 µM (inactive); GI50 (HT-29): > 100 µM (inactive); GI50 (CCRF-CEM): > 100 µM (inactive); GI50 (DU-145): > 100 µM (inactive); GI50 (NCI-H460): > 100 µM (inactive); GI50 (SK-MEL-2): > 100 µM (inactive); GI50 (TK-10): > 100 µM (inactive); GI50 (SNB-19): > 100 µM (inactive); GI50 (Hs-578T): > 100 µM (inactive); GI50 (M14): > 100 µM (inactive); GI50 (CAKI-1): > 100 µM (inactive); GI50 (MDA-MB-231): > 100 µM (inactive); GI50 (U-251): > 100 µM (inactive); GI50 (SF-539): > 100 µM (inactive)
